Assay results from patent US4250321A, “1-Descarboxy-1-ketoester(ketoacid)-protaglandins” (American Cyanamid Company, priority 1979, dated 1981).
Read-outs that look alike come from different tables or passages of the source.

Tests used:
Format in all cases: in vivo
[1] = test system: bronchospasms elicited by intravenous injections of 5-hydroxytryptamine, histamine or acetylcholine; experiment: Bronchodilator activity in guinea pigs by the Konzett procedure; settings: Cavia porcellus, guinea pig, three logarithmic cumulative intravenous doses
Procedure: The compounds of this invention are useful as bronchodilators for the treatment of asthma and chronic bronchitis. Bronchodilator activity is determined in guinea pigs against bronchospasms elicited by intravenous injections of 5-hydroxytryptamine, histamine or acetylcholine by the Konzett procedure. [See J. Lulling, P. Lievens, F. El Sayed and J. Pringnot, Arzneimittel-Forschung, 18, 955 (1968).].
In Table which follows bronchodilator activity for representative compounds of this invention against one or more of three spasmogenic agents is expressed as an ED50 determined from the results obtained with three logarithmic cummulative intravenous doses. In this assay, these compounds of this invention provide an effect of longer duration than does natural 1-PGE1 or 1-PGE2.

[2] = test system: histamine-stimulated gastric acid secretion; experiment: Gastric acid secretion in the dog, gastric fistula; settings: 5 μg/Kg by stomach tube, i.v. histamine 40 μg/kg/hr
Procedure: (§1) Experiments are carried out on six fasted female mongrel dogs, 3-7 years of age. Each had been provided with either a gastric fistula (4 dogs) or a Heidenhain pouch (2 dogs) using standard surgical techniques. Briefly, spool shaped cannulae of stainless steel (gastric fistual preparation) or titanium (Heidenhain pouch preparation) were inserted into narrow slits in the most dependent portion of the vertical stomach and retained in place by a purse-string suture. In the Heidenhain pouch preparation the slit made in a denervated sleeve of stomach which was isolated along the greater curvature. The cannulae were exteriorized through a trocar wound in the abdomen just left of midline and, as the purse string was tightened about the cannulae, the edges of the wound were inverted.
The drug is administered at zero time through the smaller lumen of a double lumen Salen Sump Tube which has been placed transorally into the animal's stomach. The length is adjusted to reach from the mouth just to the cannula site. Five ml of saline are then flushed through the smaller lumen, followed by 5 ml of air. Immediately following 20-25 ml of saline are placed into the stomach through the larger lumen of the double lumen tube and the tube withdrawn.
Thirty minutes after the drug is administered the gastric annula is opened, irrigated rapidly with 25-30 ml of saline 4 separate times and allowed to drain for 15 minutes.
At the end of the drainage period, the intravenous histamine infusion is started ([…]) and the first 15 minutes collection period of gastric secretions via the cannula is begun. The collection is changed every 15 minutes. The volume of each 15 minute sample is measured and an aliquot titrated to pH 7 with 0.1 N NaOH using a Radiometer automatic titrator.
^1 Secretion is stimulated with intravenous histamine, 40 μg/kg/hr
g/Kg) 45 minutes after administration of compound (5μg/Kg)? or vehicle
(control) by stomach tube. Secretions are collected from fistula annula.

[3] = test system: histamine-stimulated gastric acid secretion; experiment: Gastric acid secretion in the dog, Heidenhain pouch; settings: 5 μg/kg by stomach tube, i.v. histamine 40 μg/kg/hr
Procedure: as §1
The intravenous histamine infusion ([…]) is started. At the same time, the first gastric secretion collection is begun. these secretions are collected by gravity drainage through the Heidenhain pouch cannula. Separate gastric samples are collected every fifteen minutes. When the volumes of two successive samples are within 10% of each other (usually occuring by the end of the fourth period--after one hour of histamine infusion) the drug is given to the animal (time 0). The latter of the two samples is considered to be the control for that particular experiment. The drug is administered through the smaller lumen of a double lumen Salem Sump Tube which has been cut to a length equal to the mouth to stomach distance of the dog. Following administration of the drug, the narrow lumen is flushed first with […], followed by 5 ml of air. Twenty-five to 30 ml of saline is then introduced into the stomach through the larger lumen and the tube withdrawn. (Note: Samples of gastric juice are taken from the pouch, drug is administered into the main stomach). Aliquots of each 15 minute gastric sample are titrated to pH 7 with 0.1 N NaOH using a Radiometer automatic titrator.
^2 Secretion is stimulated with intravenous histamine, 40 μg/kg/hr
and samples are collected through the pouch cannula at 15 minute
intervals. When the volume of two successive samples are within 10% of
each other, compound is administered (5 μg/kg) by stomach tube. The en
of the latter two periods is considered as 0 time (control).

[4] = bronchospasm by 5-hydroxytryptamine, read-out: ED50 5HT
[5] = bronchospasm by acetylcholine, read-out: ED50 ACH
[6] = bronchospasm by histamine, read-out: ED50 HIST.

SMILES	ED50 [1, 4] [µg/kg]	ED50 [1, 5] [µg/kg]	ED50 [1, 6] [µg/kg]	% INHIBITION ACID SECRETION, 45-60 minutes after compound [2] [%]	% INHIBITION ACID SECRETION, 60-75 minutes after compound [2] [%]	% INHIBITION ACID SECRETION, 75-90 minutes after compound [2] [%]	% INHIBITION ACID SECRETION, 90-105 minutes after compound [2] [%]	% INHIBITION ACID SECRETION, 105-120 minutes after compound [2] [%]	% INHIBITION ACID SECRETION, 0-15 minutes after compound ([3]; 0-15 min) [%]	% INHIBITION ACID SECRETION, 15-30 minutes after compound ([3]; 15-30 min) [%]	% INHIBITION ACID SECRETION, 30-45 minutes after compound ([3]; 30-45 min) [%]	% INHIBITION ACID SECRETION, 45-60 minutes after compound ([3]; 45-60 min) [%]	% INHIBITION ACID SECRETION, 60-75 minutes after compound ([3]; 60-75 min) [%]
C=CC(O)(C/C=C/[C@H]1[C@H](O)CC(=O)[C@@H]1C/C=C\CCCC(=O)C(=O)OCC)CCCC (relative stereo) [dl-1,9-Dioxo-1-carbethoxy-11α,16-dihydroxy-16-vinyl-5-cis-13-trans-prostadiene]	0.665	3.41	2.26	–	–	–	–	–	–	–	–	–	–
CCCCC(C)(O)C/C=C/[C@H]1[C@H](O)CC(=O)[C@@H]1C/C=C\CCCC(=O)C(=O)OCC (relative stereo) [dl-1,9-Dioxo-1-carbethoxy-11α,16-dihydroxy-16-methyl-5-cis-13-trans-prostadiene]	9.51	5.92	9.31	96	62	59	56	47	–	–	–	–	–
CCCCCC(C)(O)/C=C/[C@H]1[C@H](O)CC(=O)[C@@H]1CCCCCCC(=O)C(=O)OCC (relative stereo) [dl-1,9-dioxo-1-carbethoxy-11α,15-dihydroxy-15-methyl-13-trans-prostene]	4.22	–	6.05	–	–	–	–	–	–	–	–	–	–
CCCCC(C)(O)C/C=C/[C@H]1[C@H](O)CC(=O)[C@@H]1CCCCCCC(=O)C(=O)OCC (relative stereo) [dl-1,9-dioxo-1-carbethoxy-11,16-dihydroxy-16-methyl-13-trans-prostene]	–	–	–	97	91	76	72	56	20	28	34	21	12
